Patent publication US10874743B2, “IRAK degraders and uses thereof” (Kymera Therapeutics, Inc., priority 2017, dated 2020)

What was measured:
[1] = molecular target: T1, IRAK4 (Homo sapiens, UniProt Q9NWZ3); assay: OCI-LY-10 MSD assay for IRAK4 DC50; format: cell-based; design: endogenous in cells; host or cells: OCI-LY10; conditions: OCI-LY10 cells, 4 hr incubation, concentration required to degrade 50% of protein
T1 sequence (Q9NWZ3 1-460): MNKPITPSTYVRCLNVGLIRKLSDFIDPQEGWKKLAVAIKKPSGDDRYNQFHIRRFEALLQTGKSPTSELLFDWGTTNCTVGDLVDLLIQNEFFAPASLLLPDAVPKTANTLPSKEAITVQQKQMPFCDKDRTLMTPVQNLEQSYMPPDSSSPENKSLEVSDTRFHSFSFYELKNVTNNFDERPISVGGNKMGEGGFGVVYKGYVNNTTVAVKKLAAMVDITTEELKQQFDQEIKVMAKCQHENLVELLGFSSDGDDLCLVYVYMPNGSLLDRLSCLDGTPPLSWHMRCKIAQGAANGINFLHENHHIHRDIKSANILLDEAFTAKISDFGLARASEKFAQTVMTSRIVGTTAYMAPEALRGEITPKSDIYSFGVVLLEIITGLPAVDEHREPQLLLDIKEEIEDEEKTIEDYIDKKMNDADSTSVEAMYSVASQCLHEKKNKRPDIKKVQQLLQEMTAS
Method: A MSD assay was run to determine the concentration of compound required to degrade 50% of protein (DC50).
Day 1 • Compounds were reconstituted to 10 mM in stock solutions. The stock solutions were diluted to 5 mM and 45 μL of each dilution was transferred to a 384 pp-plate. A 3 fold, 8-point serial dilution was performed by transferring 15 μL of compound into 30 μL DMSO using Janus. • 20 nL of each compounds were added into each well of a 96-well plate (Corning3799). • OCI-Ly10 cells were seeded into the 96-well plate at 3.0*10e^5 cells/100 μL/well. • The cell plate was shaken at 720 rpm for 5 min and incubated for 4 hr. • The 100 μL of cells were transferred into the 96-PCR plate and spun down at high speed for 5 mins. • The supernatant was discarded and 100 μL of RIPA lysis buffer with proteinase inhibitors was added per well. The plate was then sealed and shaken at 600 rpm and 4° C. for about 20 min. • The plate was then spun down at high speed (about 3200 g) for 30 min and then frozen in a −80° C. fridge. • A bare MSD plate (L15XA-3) was coated with 2 μg/mL of capture antibody (mouse Anti-IRAK4 antibody [2H9], ab119942) in PBS to 40 μL/well and incubated overnight at 4° C.
Day 2 • The MSD coated plate was washed 3× (150 μL/well) with 1×TBST (CST #9997S). • The MSD plate was then blocked with 150 μL of blocking buffer [3% Blocker A (MSD, R93BA-4) in TBST]/well and shaken for 1 hr at R^† and 600 rpm. • The MSD plate was washed 3× (150 μL/well) with 1×TBST. The sample RIPA lysates were then added to the MSD plate (50 μL/well) and shaken for 1 hr at R^† and 600 rpm. • The MSD plate was washed 3× (150 μL/well) with 1×TBST and the primary detection antibody (Rabbit Anti-IRAK4 antibody [Y279], ab32511) was added to a final concentration of 1 μg/ml with 25 μL/well. The plate was then shaken for 1 hr at RT and 600 rpm. • The MSD plate was washed 3× (150 μL/well) with 1×TBST and the secondary detection antibody, SULFO-TAG anti-species antibody (Anti Rabbit Antibody (R32AB-5) MSD, R32AB-1) was added to a volume of 25 μL/well at a final concentration of 1 jag/ml. The plate was then shaken for 1 hr at RT and 600 rpm. • The MSD plate was then washed 3× (150 μL/well) with 1×TBST. • lx MSD reading buffer was then added (150 μL/well) and the plate was diluted with 4× water. (MSD, R92TC-2) • The MSD instrument was then read.
Data Analysis • The remaining activity was calculated following the formula below:
Calculate • The DC50 was calculated by fitting the Curve using Xlfit (v5.3.1.3), equation 201: Y=Bottom+(Top−Bottom)/(1+10^((Log IC50−X)*HillSlope))
OCI-LY-10 DC50 results. The letter codes for IRAK4 DC50 indicate the concentration of compound required to degrade 50% of protein: A (<0.05 μM), B (0.05-0.1 μM), C (0.1-0.5 μM), D (0.5-1.0 μM), and E (>1.0 μM).

[2] = molecular target: T1, IRAK4; assay: OCI-LY-10 degradation assay (western blot, % IRAK4 degraded after 4 hours); format: cell-based; design: endogenous in cells; host or cells: OCI-LY10; conditions: OCI-LY10 cells, 4 hours; for OCI-LY10 % IRAK4 Degradation (0.01 uM): 0.01 uM compound; for OCI-LY10 % IRAK4 Degradation (0.1 uM): 0.1 uM compound; for OCI-LY10 % IRAK4 Degradation (1 uM): 1 uM compound
Procedure, shortened: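 IRAK4 loss after 4 h at 37° C was scored A (>50%), B (>20-50%) or C (<20%) from infrared western blots of RIPA lysates, 20-25 μg protein per lane. Compound was applied at 0.003-10 μM final to OCI-LY10 cells cultured in RPMI-1640 with 20% FBS and 55 μM 2-ME.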

Compound: NC(=O)c1nn(CCOCCOCCOCCOCCNc2cccc3c2C(=O)N(C2CCC(=O)NC2=O)C3=O)cc1NC(=O)c1coc(-c2ccnc(NCC3CC3)c2)n1 (centres unmarked) [I-240]
- DC50 [1]: > 1000 nM
- OCI-LY10 % IRAK4 Degradation (0.01 uM) [2]: B (>20-50% degradation)
- OCI-LY10 % IRAK4 Degradation (0.1 uM) [2]: B (>20-50% degradation)
- OCI-LY10 % IRAK4 Degradation (1 uM) [2]: B (>20-50% degradation)

Compound: CN(CCOCCOCCCc1cccc2c1C(=O)N(C1CCC(=O)NC1=O)C2=O)C(=O)c1ccc(-n2cc(NC(=O)c3coc(-c4ccnc(NCC5CC5)c4)n3)c(C(F)F)n2)cc1 (centres unmarked) [I-225]
- DC50 [1]: < 50 nM
- OCI-LY10 % IRAK4 Degradation (0.01 uM) [2]: C (<20% degradation)
- OCI-LY10 % IRAK4 Degradation (0.1 uM) [2]: A (>50% degradation)
- OCI-LY10 % IRAK4 Degradation (1 uM) [2]: A (>50% degradation)

Compound: O=C1CCC(N2C(=O)c3cccc(NC4CCN(CCOCCOCCNC(=O)c5ccc(-n6cc(NC(=O)c7coc(-c8ccnc(NCC9CC9)c8)n7)c(C(F)F)n6)cc5)CC4)c3C2=O)C(=O)N1 (centres unmarked) [I-267]
- DC50 [1]: 50 to 100 nM
- OCI-LY10 % IRAK4 Degradation (0.01 uM) [2]: C (<20% degradation)
- OCI-LY10 % IRAK4 Degradation (0.1 uM) [2]: A (>50% degradation)
- OCI-LY10 % IRAK4 Degradation (1 uM) [2]: B (>20-50% degradation)

Compound: O=C1CCC(N2C(=O)c3cccc(CCCNCc4ccc(-n5cc(NC(=O)c6coc(-c7ccncc7)n6)c(C(F)F)n5)cc4)c3C2=O)C(=O)N1 (centres unmarked) [I-366]
- DC50 [1]: > 1000 nM
- OCI-LY10 % IRAK4 Degradation (0.01 uM) [2]: C (<20% degradation)
- OCI-LY10 % IRAK4 Degradation (0.1 uM) [2]: C (<20% degradation)
- OCI-LY10 % IRAK4 Degradation (1 uM) [2]: C (<20% degradation)

Compound: O=C1CCC(N2C(=O)c3ccc(N4CCN(CCOCCOCCOCCNCc5ccc(-n6cc(NC(=O)c7coc(-c8ccnc(NCC9CC9)c8)n7)c(C(F)F)n6)cc5)CC4)cc3C2=O)C(=O)N1 (centres unmarked) [I-394]
- DC50 [1]: 100 to 500 nM
- OCI-LY10 % IRAK4 Degradation (0.01 uM) [2]: C (<20% degradation)
- OCI-LY10 % IRAK4 Degradation (0.1 uM) [2]: A (>50% degradation)
- OCI-LY10 % IRAK4 Degradation (1 uM) [2]: A (>50% degradation)

Compound: O=C1CCC(N2C(=O)c3cccc(NCCNCCCCCNC(=O)c4ccc(-n5cc(NC(=O)c6coc(-c7ccnc(NC8CC8)c7)n6)c(C(F)F)n5)cc4)c3C2=O)C(=O)N1 (centres unmarked) [I-242]
- DC50 [1]: < 50 nM
- OCI-LY10 % IRAK4 Degradation (0.01 uM) [2]: B (>20-50% degradation)
- OCI-LY10 % IRAK4 Degradation (0.1 uM) [2]: A (>50% degradation)
- OCI-LY10 % IRAK4 Degradation (1 uM) [2]: A (>50% degradation)

Compound: O=C1CCC(N2C(=O)c3ccc(N4CCN(CCOCCNCc5ccc(-n6cc(NC(=O)c7coc(-c8ccnc(NCC9CC9)c8)n7)c(C(F)F)n6)cc5)CC4)cc3C2=O)C(=O)N1 (centres unmarked) [I-393]
- DC50 [1]: 100 to 500 nM
- OCI-LY10 % IRAK4 Degradation (0.01 uM) [2]: C (<20% degradation)
- OCI-LY10 % IRAK4 Degradation (0.1 uM) [2]: A (>50% degradation)
- OCI-LY10 % IRAK4 Degradation (1 uM) [2]: A (>50% degradation)

Compound: Cn1c(=O)n(C2CCC(=O)NC2=O)c2cccc(CCCOCCOCCOCCOCCN[C@H]3CC[C@H](Nc4ncnc5[nH]cc(C6CCOCC6)c45)CC3)c21 (some centres unmarked) [I-442, 3-[3-Methyl-2-oxo-4-[3-[2-[2-[2-[2-[[4-[(5-tetrahydropyran-4-yl-7H-pyrrolo[2,3-d]pyrimidin-4-yl)amino]cyclohexyl]amino]ethoxy]ethoxy]ethoxy]ethoxy]propyl]benzimidazol-1-yl]piperidine-2,6-dione]
- DC50 [1]: > 1000 nM

Compound: Cc1ncsc1-c1ccc(CNC(=O)[C@@H]2C[C@@H](O)CN2C(=O)[C@@H](NC(=O)COCCOCCOCCNCc2ccc(-n3cc(NC(=O)c4coc(-c5ccnc(NCC(F)(F)F)c5)n4)c(C(N)=O)n3)cc2)C(C)(C)C)cc1 [I-414]
- DC50 [1]: 100 to 500 nM

Compound: Cn1cc(NC(=O)c2coc(-c3ccnc(NCC(F)(F)F)c3)n2)c(C(=O)NCCCOCCCOCCCNc2cccc3c2C(=O)N(C2CCC(=O)NC2=O)C3=O)n1 (centres unmarked) [I-294]
- DC50 [1]: > 1000 nM

Compound: Cn1c(=O)n(C2CCC(=O)NC2=O)c2cccc(CCCOCCOCCNC(=O)c3ccc(-n4cc(NC(=O)c5coc(-c6ccnc(NCC(F)(F)F)c6)n5)c(C(F)F)n4)cc3)c21 (centres unmarked) [I-280]
- DC50 [1]: < 50 nM

Compound: O=C1CCC(N2C(=O)c3cccc(NCCOCCOCCNC(=O)c4ccc(-n5cc(NC(=O)c6coc(-c7ccnc(NCC(F)(F)F)c7)n6)c(N6CCN(CCO)C6=O)n5)cc4)c3C2=O)C(=O)N1 (centres unmarked) [I-428]
- DC50 [1]: < 50 nM

Compound: CC1(C)CCN(c2nn(-c3ccc(C(=O)NCCOCCOCCNc4cccc5c4C(=O)N(C4CCC(=O)NC4=O)C5=O)cc3)cc2NC(=O)c2coc(-c3ccnc(NCC(F)(F)F)c3)n2)C1=O (centres unmarked) [I-429, N-[3-(3,3-dimethyl-2-oxo-pyrrolidin-1-yl)-1-[4-[2-[2-[2-[[2-(2,6-dioxo-3-piperidyl)-1,3-dioxo-isoindolin-4-yl]amino]ethoxy]ethoxy]ethyl]carbamoyl]phenyl]pyrazol-4-yl-2-[2-(2,2,2-trifluoroethylamino)-4-pyridyl]oxazole-4-carboxamide]
- DC50 [1]: > 1000 nM

Compound: Cn1c(=O)n(C2CCC(=O)NC2=O)c2cccc(CCCOCCOCCNCc3ccc(-n4cc(NC(=O)c5cocn5)c(C(N)=O)n4)cc3)c21 (centres unmarked) [I-422]
- DC50 [1]: > 1000 nM

Compound: CC(C)(C)[C@H](NC(=O)COCCOCCOCCNc1cccc2c1C(=O)N(C1CCC(=O)NC1=O)C2=O)C(=O)N1C[C@H](OC(=O)[C@@H]2CCCN2)C[C@H]1C(=O)NCc1ccc(-n2cc(NC(=O)c3coc(-c4ccnc(NCC5CC5)c4)n3)c(C(F)F)n2)cc1 (stereo partly drawn) [I-286, [(3R,5S)-5-[[4-[4-[[2-[2-(cyclopropylmethylamino)-4-pyridyl]oxazole-4-carbonyl]amino]-3-(difluoromethyl)pyrazol-1-yl]phenyl]methylcarbamoyl]-1-[(2S)-2-[[2-[2-[2-[2-[[2-(2,6-dioxo-3-piperidyl)-1,3-dioxo-isoindolin-4-yl]amino]ethoxy]ethoxy]ethoxy]acetyl]amino]-3,3-dimethyl-butanoyl]pyrrolidin-3-yl](2S)-pyrrolidine-2-carboxylate]
- DC50 [1]: > 1000 nM

Compound: NC(=O)c1nn(-c2ccc(C(=O)NCCOCCCOCCNc3cccc4c3C(=O)N(C3CCC(=O)NC3=O)C4=O)cc2)cc1NC(=O)c1coc(-c2ccnc(NCC3CC3)c2)n1 (centres unmarked) [I-213]
- DC50 [1]: < 50 nM

Compound: Cn1c(=O)n(C2CCC(=O)NC2=O)c2ccc(CCCOCCCN3CCN(C4CCC(Nc5ncnn6ccc(C7CCOCC7)c56)CC4)CC3)cc21 (centres unmarked) [I-436, 3-[3-Methyl-2-oxo-5-[3-[3-[4-[4-[(5-tetrahydropyran-4-ylpyrrolo[2,1-f][1,2,4]triazin-4-yl)amino]cyclohexyl]piperazin-1-yl]propoxy]propyl]benzimidazol-1-yl]piperidine-2,6-dione]
- DC50 [1]: > 1000 nM

Compound: Cn1c(=O)n(C2CCC(=O)NC2=O)c2cccc(CCCNCc3ccc(-n4cc(NC(=O)c5coc(-c6ccnc(NCC7CC7)c6)n5)c(C(F)F)n4)cc3)c21 (centres unmarked) [I-423]
- DC50 [1]: > 1000 nM

Compound: Cc1ncsc1-c1ccc(CNC(=O)[C@@H]2C[C@@H](O)CN2C(=O)[C@@H](NCCOCCOCCOCCNCc2nn(C)cc2NC(=O)c2coc(-c3ccnc(NCC(F)(F)F)c3)n2)C(C)(C)C)cc1 [I-413]
- DC50 [1]: > 1000 nM

Compound: Cn1c(=O)n(C2CCC(=O)NC2=O)c2ccc(CCCOCCCNCc3ccc(-n4cc(NC(=O)c5coc(-c6ccnc(NCC7CC7)c6)n5)c(C(F)F)n4)cc3)cc21 (centres unmarked) [I-405]
- DC50 [1]: < 50 nM
